Reference: patent US8026274B2, “Use of oxandrolone in the treatment of burns and other wounds” (Savient Pharmaceuticals, Inc., priority 1996, dated 2011)
Entries after “also recorded” stand apart in the source; their conditions may differ.

How the values were obtained:
[1] = tested on: burn patients (deep burn of 30-50% of body surface); test: Example 2: effect of oxandrolone on post-burn catabolism (II), first three weeks of recovery phase; assay type: in vivo, human
Description: Another study on the effect of oxandrolone on post-burn patients was carried out as follows.
The onset of the study was defined as the onset of the recovery phase (anabolic phase). The study period included the first three weeks of the recovery phase. Although somewhat arbitrary, the beginning of the recovery period was determined for all patients using the following criteria: • a. No need for life support measures, with a stable cardiopulmonary status; • b. No active infection; • c. Basal body temperature below 99.5° F.; • d. Metabolic rate at rest (indirect calorimetry) being less than 130% of normal; • e. Open wound (not counting donor sites) not exceeding 10% TBS; • f. Patient taking adequate oral diet with supplements or tube feeding and off all parenteral feeding; • g. active participation in a physical therapy program including resistance exercises especially to large muscle groups.
The patients were divided into three groups in a prospective randomized manner: • Group 1: High protein high calorie ad lib oral diet and protein supplement Met-Rx™. The supplement was given in a quantity equal to approximately one liter so that total protein intake would approximate 2 g/kg/day. • Group 2: Same as Group I with the addition of oxandrolone 10 mg orally twice a day. • Group 3: ad lib oral diet and a protein hydrolysate supplement (Ensure-HN or Sustacal). These supplements contain approximately 40-45 g/l protein, 140-150 g/l carbohydrate and 30-37 g/l fat. Daily protein intake consumed equalled 1.3-1.5 g/kg or 75% above the RDA value for healthy normals of 0.8 g/kg. This group was managed in the ten months prior to the onset of this study.
All patients were located in the burn/trauma step-down unit and then transferred to an acute rehabilitation hospital usually within the first week of onset of the recovery period. A burn nurse coordinator followed all patients at the rehabilitation hospitals. All patients were monitored until discharge but only the first three week period was used for the study period.
The following factors were checked: • a. Fatigue was measured objectively through increases in pulse of over 75% of predicted maximum (based on age) and a respiratory rate exceeding 30 breaths per minute beyond one minute after completion of the activity. • b. Muscle function was quantitated using a physical therapy index. The physical therapy program was determined for each patient by the burn therapist team based on optimum projected goals to be achieved at the three week period. Standard isokinetic and resistance exercises were used to increase strength. Ambulation, stair climbing and the stationary bike were used to increase endurance. Since the basic components of therapy programs were nearly identical between patients, an index was developed which quantitated progress of patient performance:
• c. Body weight; • d. Daily nutritional profiles; • e. Liver function
Within each group, paired data was analyzed using Dunnett's T-test comparing individual time periods. Between groups, analysis was compared by use of a nonparametric method, the Wilcoxan Signed Rank Test. Standard regression analysis was also performed. A p<0.05 was considered significant.

[2] = in vivo; cited from earlier work
[3] = tested on: burn patients (deep burn of 30-50% of body surface); test: Example 1: effect of oxandrolone on post-burn catabolism (I), recovery phase in burn patients; assay type: in vivo, human
Description: A study on the effect of oxandrolone on post-burn patients was performed as described below.
The patients included in this study had undergone: • a. catabolic phase until 80-90% of wound closure (4-10 weeks); • b. loss of 15-25% body weight (mostly lean body mass) during catabolic phase despite optimum nutrition;
The transition from “catabolic” to recovery “anabolic” was defined by: • a. No need for life support measures, being stable and out of the Intensive Care Unit (ICU); • b. No active infection (stress); • c. Open wound (not counting donor sites) not exceeding 10% Total Body Surface (TBS); • d. Patient taking oral diet with supplements or tube feeding (off parenteral feeding); • e. patient can actively participate in a physical therapy program with active ROM exercises accentuating the anabolic stimulus of exercise.
All patients were located in the burn step-down unit or in an acute rehabilitation hospital where daily information is retrieved from the physiatrist, nutritionist, and therapist.
The patients were divided into three groups in a prospective randomized manner: • Group 1: Standard nutritional goals as defined by the nutrition support service. • Group 2: Same as Group 1 plus 2-3 Met-Rx™ (protein supplement) per day (sufficient protein to increase daily protein intake to 2-2.2 g/kg/day). • Group 3: Same as Group 2 plus oxandrolone 20 mg orally four times daily. Measurements
The following factors were checked: • a. Subjective energy level (per Braintree study) 0-10; • b. Physical therapy index^1 (per Braintree study) 0-10: • 0 completes 25% session with fatigue • 2 completes 50% session with fatigue • 4 completes 75% session with fatigue • 6 completes 100% session with fatigue • 8 completes 100% session with no fatigue • 10 completes 100% session and more with no fatigue; • c. Weekly weight gain; • d. Daily nutritional profiles; • e. Measurement of lean body mass by bioelective impedance. ^1 assessment of muscle strength and endurance
The onset of the study was defined as the onset of the recovery phase (anabolic phase). Patients were studied for 3 weeks (from the onset of anabolism).

[4] = tested on: pressure sores (decubitus ulcers) in a paraplegic patient; test: Example 3: oxandrolone treatment of pressure sores (decubitus ulcers); assay type: in vivo, human; details: 20 mg per day orally, preliminary result
Text: A paraplegic patient was suffering from pressure sores (decubitus ulcers) which had been unhealed for over one year. […] Further experiments using oxandrolone for treatment of pressure sores and other wounds are planned.

[5] = doses below 80 mg; cited from earlier work
[6] = tested on: patients with alcoholic hepatitis; details: dosages of up to 80 mg/day; cited from earlier work
[7] = in contrast to the majority of oral androgenic anabolic steroids; cited from earlier work
[8] = Group 2: oxandrolone 10 mg orally twice a day plus Met-Rx
[9] = Group III: oxandrolone 20 mg orally four times daily plus Met-Rx, 3 weeks

C[C@]12COC(=O)C[C@@H]1CC[C@@H]1[C@@H]2CC[C@@]2(C)[C@H]1CC[C@]2(C)O [oxandrolone, 17α-methyl-17β-hydroxy-2-oxa-5α-androstan-3-one]
maintenance of weight after discontinuation ([1]; 3 of 6 patients followed for eight weeks after discontinuation of three weeks of oxandrolone): the weight remained | average time of discharge from the rehabilitation or recovery phase to home [1, 8]: 22 ± 4 days | weight gain over the three week period relative to Group 1 (Met-Rx alone) [1, 8]: double that of Group 1 | weight gain relative to retrospective Group 3 (standard supplements) [1, 8]: nearly four times that of retrospective Group 3; also recorded: significantly increased | physical therapy index (muscle strength and endurance, 0-10) ([1]; Group 2: oxandrolone 10 mg orally twice a day plus Met-Rx, three weeks): performance exceeded expectations; also recorded: significantly higher than either of the other groups; also recorded: significantly increased | liver function tests / chemical abnormality ([1]; Group 2: oxandrolone 10 mg orally twice a day plus Met-Rx, one patient): transient small increase in alkaline phosphatase | hirsutism ([1]; the three women in the oxandrolone group): No hirsutism | anabolic activity relative to its androgenic activity [2]: approximately 6 times | anabolic activity relative to that of methyltestosterone [2]: 6.3 times | energy level (0-10) [3, 9]: markedly improved | therapy (physical therapy index 0-10) [3, 9]: markedly improved | weight gain relative to Group I (standard nutrition) ([3]; Group III: oxandrolone 20 mg orally four times daily plus Met-Rx, 4 patients, 3 weeks): four times that of Group I | food intake ([3]; Group III: oxandrolone plus Met-Rx, compared with Group II): apparent added stimulus to food intake | lean body weight gain as share of weight gain, by bioelective impedance ([3]; combination of Met-Rx and oxandrolone): 80% | healing of pressure sores unhealed for over one year [4]: the sores began to heal | water retention [5]: not reported to occur | safety [6]: safe | hepatic metabolism [7]: relatively little hepatic metabolism
